{"source": "patent US20060018857A1", "about": "“Conditioning surface-active preparation” (priority 2004, published 2006)", "key": {"[1]": {"test": "Sensory assessment of skin feel on the treated forearm", "assay_type": "in vivo, human", "conditions": "FIG. 1; versus standard co-surfactant Cocamidopropylbetaine; inside of forearm", "source_text": "The conditioning properties of two surfactant mixtures were compared with one another by sensory assessment. After the sample composition had been completely absorbed onto the skin, the upper side of the middle and index fingers was slowly drawn without pressing over the treated inside of the forearm. If the skin surface was felt to be without friction, this corresponded to a soft skin feel.\nIn FIG. 1, marks in the left column favor the standard co-surfactant and marks in the right column favor the inventive co-surfactant for that property. In FIG. 1, square marks indicate a high degree of significance; diamonds indicate a medium degree of significance and circles indicate a low degree of significance (as indicated also by the length of the horizontal lines through the marks)."}, "[2]": {"test": "Half head test, shampoo versus standard", "assay_type": "in vivo, human", "procedure": "Each test was conducted on 10 volunteers by trained and skilled people. Each half of the head was prewashed and then treated with the corresponding products. During the test, performance properties, such as skin feel, were evaluated first, followed by such parameters as combability, feel, luster and volume."}, "[3]": {"test": "Adsorption of sodium lauryl ether sulfate onto skin", "set-up": "species or system human", "conditions": "FIG. 4; versus standard co-surfactant cocoglutamate"}, "[4]": {"conditions": "FIG. 2, versus standard co-surfactant Cocamidopropylbetaine, no added polymer"}, "[5]": {"conditions": "FIG. 3, versus standard co-surfactant Cocamidopropylbetaine and a polymer"}}, "data": [{"substance": "Laureth-7 Citrate", "values": [{"measurement": "Skin feel (softness), sensory assessment", "setting": "[1]", "value": "felt to be softer"}, {"measurement": "Combability of hair in the dry and wet state", "setting": "[2]; [4]", "value": "can be combed far better both in the dry and in the wet state"}, {"measurement": "Feel properties of hair", "setting": "[2]; [4]", "value": "distinctly better"}, {"measurement": "Conditioning properties", "setting": "[2]; FIG. 2, versus standard co-surfactant Cocamidopropylbetaine, no added polymer, 10 volunteers", "value": "clearly superior conditioning properties"}, {"measurement": "Combability of dry hair", "setting": "[2]; [5]", "value": "improved combability of dry hair"}, {"measurement": "Feel of the hair", "setting": "[2]; [5]", "value": "more pleasant feel of the hair"}, {"measurement": "Prevention of adsorption of sodium lauryl ether sulfate onto skin", "setting": "[3]", "value": "prevented considerably more effectively"}]}]}
